Assay results as given in article PMC4481774, “Discovery of a non-cationic cell penetrating peptide derived from membrane-interacting human proteins and its potential as a protein delivery carrier” (Scientific Reports, 2015).
Like-named read-outs stand apart in the source and are kept apart here. Where no end group is shown, it is not given here. The star is where a group is joined. FITC = O=C1OC2(c3ccc(O)cc3Oc3cc(O)ccc32)c2ccc(NC(=S)*)cc21

Legend:
HeLa cells [1] = experiment: Cellular uptake of FITC-labeled CPPs by flow cytometry; type: cell-based, Human; conditions: for order of potency in intracellular translocation (dose-dependent uptake): 0, 0.5, 1, 2.5, 5 and 10 μM; for order of potency in intracellular translocation (dose-dependent uptake) / cellular uptake efficiency: average of three independent experiments; for cellular uptake efficiency: 1 μM peptide, flow cytometry MFI, serum-containing DMEM, 37 °C
Experimental: For assessing the uptake of CPP candidates by HeLa cells, cells were seeded onto 6-well plates (1.0 × 10^6 cells/well). […] Cells were washed two times with phosphate-buffered saline (PBS), incubated in trypsin-EDTA solution (0.01% trypsin) at 37 °C for 10 min to digest extracellular proteins, washed two times with ice-cold PBS, and finally resuspended in 500 μL of ice-cold PBS for flow cytometry assays. For endocytosis inhibitor treatments, cells were pre-incubated with various inhibitors (50 μg heparin, 50 μM CPZ, 100 μM CQ, 1 mM MβCD, 30 μg dynasore, or 50 μM EIPA) in serum-containing medium for 30 min before AA3H (1 μM) was added. The sample for flow cytometry analysis was prepared as described above. For the analysis of peptide internalization, a GUAVA flow cytometry system (Merck Millipore, Darmstadt, Germany) with the FL-1 channel for measuring fluorescence in GuavaSoft 2.6 was used according to the manufacturer’s instructions.

HeLa cells [2] = experiment: Intracellular uptake of CPPs in the presence or absence of serum, flow cytometry; type: cell-based, Human; conditions: peptide 1 μM, with or without 10% mouse serum, 4 h
Experimental: Samples were prepared as described for cellular uptake above.

cells [3] = conditions: uptake kinetics of TAT; cited from earlier work
Raw 264.7 cells = experiment: Immunogenicity assay (IL-6 release, ELISA); type: cell-based, Murine; conditions: 24 h; AA3H 10 μM or LPS 10 μg/mL; mouse IL-6 ELISA; average of three; non-treated control 20 pg/mL
Experimental: Raw 264.7 cells were seeded into 24-well plates and cultured for 24 h. Cells were grown to 80% confluence and treated with lipopolysaccharides (LPS, 10 μg/mL) as a positive control. After incubation of AA3H peptide (10 μM) with cells for 24 h, supernatants were transferred to 1.5 mL tubes and centrifuged at 10,000 × g for 10 min at 4 °C. For the detection of interleukin-6 (IL-6) a mouse IL-6 ELISA kit (Thermo Scientific, Waltham, MA, USA) was used. Results from triplicate experiments were analyzed by Prism software (GraphPad, La Jolla, CA, USA). Data are presented as mean ± standard deviation (SD).

HeLa cells [4] = experiment: Cellular uptake mechanism of AA3H (heparin, low temperature, endocytosis inhibitors), flow cytometry; type: cell-based, Human
Experimental: For assessing the uptake of CPP candidates by HeLa cells, cells were seeded onto 6-well plates (1.0 × 10^6 cells/well). After 24 h, cells were washed two times with serum-free DMEM and incubated with CPPs at indicated concentrations (0.1, 1, 10 μM) in serum-containing DMEM at 37 °C. Cells were washed two times with phosphate-buffered saline (PBS), incubated in trypsin-EDTA solution (0.01% trypsin) at 37 °C for 10 min to digest extracellular proteins, washed two times with ice-cold PBS, and finally resuspended in 500 μL of ice-cold PBS for flow cytometry assays. For endocytosis inhibitor treatments, cells were pre-incubated with various inhibitors (50 μg heparin, 50 μM CPZ, 100 μM CQ, 1 mM MβCD, 30 μg dynasore, or 50 μM EIPA) in serum-containing medium for 30 min before AA3H (1 μM) was added. The sample for flow cytometry analysis was prepared as described above. For the analysis of peptide internalization, a GUAVA flow cytometry system (Merck Millipore, Darmstadt, Germany) with the FL-1 channel for measuring fluorescence in GuavaSoft 2.6 was used according to the manufacturer’s instructions.

HeLa cells [5] = experiment: Subcellular localization by confocal fluorescence microscopy; type: cell-based, Human; conditions: AA3H 1 μM, 4 h, organelle-specific staining
Experimental: To visualize the cellular uptake of a peptide using confocal fluorescence microscopy, HeLa cells were seeded onto confocal bottom dish 35-mm plates (SPL, Gyeonggi-do, Korea) and incubated with AA3H (1 μM) for 4 h. Lysosomes and nuclei of AA3H-treated cells were stained with LysoTracker (Life Technologies, Carlsbad, CA, USA; 1 μg/mL for 30 min) and Hoechst (1 μg/mL for 5 min), respectively. For staining ER and Golgi, CellLight Reagents BacMam 2.0 (Life Technologies, Carlsbad, CA, USA) were used. Cells were cultured in confocal dishes for 24 h, transfected with red fluorescence protein (RFP) for 24 h, and treated with AA3H (1 μM) for 4 h. After washing two times with PBS, the intracellular fluorescence of HeLa cells was imaged using confocal laser scanning microscopy (LSM 700, Carl Zeiss, Jena, Germany).

[6] = Liposome experiment (interaction of FITC-labeled AA3H with phospholipid liposomes); type: binding; conditions: liposomes in HBS pH 7.5, 4 h at room temperature, flow cytometric analysis (Supplementary Fig. S3)
Experimental: Liposome experiment. Phospholipids dissolved in chloroform (L-alpha-phosphatidylcholine: PC, L-alpha-phosphatidylserine: PS, and L-alpha-phosphatidylethanolamine: PE) were purchased 1 from Avanti Polar Lipids. Liposomes were prepared by following a reported procedure . After preparation of phospholipid mixtures with appropriate molar ratios (PC/PS: 8/2 and PC/PE/PS: 4/4/2), the mixtures were dried by removing the solvent. The residues were dissolved in HBS (20 mM HEPES/NaOH, pH 7.5, 100 mM NaCl, 0.02% (w/v) sodium azide) and vortexed to completely resuspend phospholipids. Then, the suspension was sonicated until to have clear solution. The prepared vesicles was incubated with AA3H-CPP (FITC labelled) for 4 h at room temperature and the mixture was centrifuged at 16,000×g for 10 min at 4°C before flow cytometric analysis.
Supplementary Fig. S3. (A) Sizes of liposomes determined by dynamic light scattering. (B) Flow cytometric analysis on the interaction between FITC-labeled AA3H and liposomes. […]

cells [7] = experiment: Uptake kinetics (half-time of internalization); type: cell-based; conditions: uptake kinetics of AA3H

## {FITC}-RRRQQQQQQRRR [PLP, protein linking peptide containing multiple arginine residues, FITC-labeled]
HeLa cells [1]; flow cytometry, fluorescence label of the peptide (Fig. 8B)
  cellular uptake of PLP-conjugated CPPs: not as high as with AA3H conjugation

## FITC-YGRKKRRQRRR [TAT47-58, widely used conventional CPP, TAT peptide of human immunodeficiency virus, FITC-labeled, reference compound]
HeLa cells [2]
  delivery efficiency in the presence of serum: significantly lowered efficiency
Cells [3]
  t0.5 (half-time of internalization): 1 min

## {FITC}-MAWWKSWIEQ [AA8H, FITC-labeled N-terminus peptide of an annexin A isoform]
HeLa cells [1]; HeLa cells, flow cytometry
  order of potency in intracellular translocation (dose-dependent uptake): AA3H > AA5H > AA8H > AA13H > AA4H
HeLa cells [1]; HeLa cells
  cellular uptake efficiency: significant cellular uptake efficiency

## lipopolysaccharide [LPS]
Raw 264.7 cells
  IL-6 released into the culture medium: 373 pg/mL

## {FITC}-MASIWVGHRG [AA3H]
HeLa cells [1]; HeLa cells, flow cytometry
  order of potency in intracellular translocation (dose-dependent uptake): AA3H > AA5H > AA8H > AA13H > AA4H
HeLa cells [1]; HeLa cells
  cellular uptake efficiency: significant cellular uptake efficiency
HeLa cells [1]; HeLa cells (Supplementary Fig. S1A)
  cellular uptake compared with the fully cationic R9 peptide: much lower cellular uptake
HeLa cells [1]; HeLa cells, flow cytometry (Fig. 2C)
  uptake efficiency compared with TAT: delivered into the cells better than TAT
HeLa cells [4]; 50 μg/mL heparin sulfate 30 min pre-treatment, then AA3H 4 h, relative to delivery without heparin, average of three
  decrease of intracellular delivery after heparin sulfate: 45%
HeLa cells [4]; 4 °C for 2 h vs 37 °C control, flow cytometry
  cellular uptake at 4 °C lower than at 37 °C: approximately 66%
HeLa cells [4]; 30-min pre-treatment, 30 μg dynasore, AA3H 1 μM
  decrease of uptake with dynasore: 57%
HeLa cells [4]; 30-min pre-treatment, 50 μM CPZ, AA3H 1 μM, serum-containing medium
  decrease in uptake with chlorpromazine (CPZ): 23.5%
HeLa cells [4]; 30-min pre-treatment, 50 μM EIPA, AA3H 1 μM
  effect of EIPA (macropinocytosis inhibitor) on peptide delivery: significant inhibition of peptide delivery
HeLa cells [4]; 30-min pre-treatment, 100 μM CQ, AA3H 1 μM, ascribed to dequenching of fluorescein, not to uptake
  increase in mean fluorescence intensity with chloroquine (CQ): 20.5%
HeLa cells [4]; 30-min pre-treatment, 1 mM MβCD, AA3H 1 μM
  reduction of uptake with methyl-β-cyclodextrin (MβCD): 32%
HeLa cells [4]; 30-min pre-treatment, AA3H 1 μM
  reduction of uptake with nystatin (NYS): 15%
HeLa cells [5]
  subcellular localization: localized in the cytoplasm but not in the nucleus
HeLa cells [2]
  delivery efficiency in the presence of serum: not considerably affected
[6]
  binding to phospholipids known to interact with annexin III: found to also bind AA3H
Cells [7]
  t0.5 (half-time of internalization): ~ 2 h

## {FITC}-MATKGGTVKA [AA4H, FITC-labeled N-terminus peptide of an annexin A isoform]
HeLa cells [1]; HeLa cells, flow cytometry
  order of potency in intracellular translocation (dose-dependent uptake): AA3H > AA5H > AA8H > AA13H > AA4H
HeLa cells [1]; HeLa cells
  cellular uptake efficiency: significant cellular uptake efficiency

## {FITC}-MAQVLRGTVT [AA5H, FITC-labeled N-terminus peptide of an annexin A isoform]
HeLa cells [1]; HeLa cells, flow cytometry
  order of potency in intracellular translocation (dose-dependent uptake): AA3H > AA5H > AA8H > AA13H > AA4H
HeLa cells [1]; HeLa cells
  cellular uptake efficiency: significant cellular uptake efficiency

## {FITC}-MGNRHAKASS [AA13H, FITC-labeled N-terminus peptide of an annexin A isoform]
HeLa cells [1]; HeLa cells, flow cytometry
  order of potency in intracellular translocation (dose-dependent uptake): AA3H > AA5H > AA8H > AA13H > AA4H
HeLa cells [1]; HeLa cells
  cellular uptake efficiency: significant cellular uptake efficiency
